According to patent US20240207427A1, “SELECTIVE DRUG RELEASE FROM INTERNALIZED CONJUGATES OF BIOLOGICALLY ACTIVE COMPOUNDS” (priority 2021, published 2024):
Where two headings read alike, the source gives them in different places.

Legend:
Assay type in all cases: cell-based
[1] = system: Ls174T cells; test: In vitro potency (CellTiter-Glo, 96 h), Ls174T; conditions: Homo sapiens, LS174T, 96 h
Protocol: (§1) In vitro potency was assessed on multiple cancer cell lines. All cell lines were authenticated by STR profiling at IDEXX Bioresearch and cultured for no more than 2 months after resuscitation. Cells cultured in log-phase growth were seeded for 24 hours in 96-well plates containing […] RPMI 1640 supplemented with 20% FBS. Serial dilutions of antibody-drug conjugates in cell culture media were prepared at 4× working concentrations, and 50 μL of each dilution was added to the 96-well plates. Following addition of test articles, cells were incubated with test articles for 4 days at 37 0° C. After 96 hours, growth inhibition was assessed by CellTiterGlo® (Promega, Madison, WI) and luminescence was measured on a plate reader.
(§2) In Table 7, IC50 values for ADCs are given in ng/mL. Cell viability was determined by CellTiter-Glo staining after 96 h exposure to ADC. ND=Not Determined. Ag2 is an antibody targeting a ubiquitous and readily internalizable antigen. The cancer cell lines tested are renal carcinoma cells (786-0), melanoma cells (A2058), pancreatic cancer cells (BxPC3), non-small-cell lung cancer cells (Calu1), anaplastic large cell lymphoma cells (DEL, DELBVR, Karpas299), Hodgkin's lymphoma cells (L540cy), (Ls174T), breast cancer cells (MDA-MB-231), acute myeloid leukemia cells (MOLM-13), and B-lymphocyte cancer cells (SU-DHL4).
as §1, with “FBS.” for “FBS. Serial dilutions of antibody-drug conjugates in cell culture media were prepared at 4× working concentrations, and 50 μL of each dilution was added to the 96-well plates.”
(§3) Cell viability was determined by CellTiter-Glo staining after 96 h exposure to the compound. ND=Not Determined. The cancer cell lines tested are renal carcinoma cells (786-0), melanoma cells (A2058), pancreatic cancer cells (BxPC3), non-small-cell lung cancer cells (Calu1), anaplastic large cell lymphoma cells (DEL, DELBVR, Karpas299), Hodgkin's lymphoma cells (L540cy), (Ls 174T), breast cancer cells (MDA-MB-231), acute myeloid leukemia cells (MOLM-13), B-lymphocyte cancer cells (SU-DHL4), multiple myeloma cells (MM.1R), (U266), and melanoma cells (SK-MEL-5).
as §1, with “37°” for “37 0°”
(§4) In the following Tables IC50 values for ADCs and CPT free drugs are given in ng/mL and nmol/L concentrations. Cell viability was determined by CellTiter-Glo staining after 96 h exposure to ADC or CPT free drug.
(§5) Cell viability was determined by CellTiter-Glo staining after 96 h exposure to ADC. ND=Not Determined.

[2] = system: anaplastic large cell lymphoma cells (DELBVR); test: In vitro potency (CellTiter-Glo, 96 h), DELBVR
Protocol: as §1, §2
as §1, with “FBS.” for “FBS. Serial dilutions of antibody-drug conjugates in cell culture media were prepared at 4× working concentrations, and 50 μL of each dilution was added to the 96-well plates.”
as §3
as §1, with “37°” for “37 0°”
as §4, §5

[3] = system: breast cancer cells (MDA-MB-231); test: In vitro potency (CellTiter-Glo, 96 h), MDA-MB-231; conditions: Homo sapiens, MDA-MB-231, 96 h
Protocol: as §1, §2
as §1, with “FBS.” for “FBS. Serial dilutions of antibody-drug conjugates in cell culture media were prepared at 4× working concentrations, and 50 μL of each dilution was added to the 96-well plates.”
as §3
as §1, with “37°” for “37 0°”
as §4, §5

[4] = system: acute myeloid leukemia cells (MOLM-13); test: In vitro potency (CellTiter-Glo, 96 h), MOLM-13; conditions: Homo sapiens, MOLM-13, 96 h
Protocol: as §1, §2
as §1, with “FBS.” for “FBS. Serial dilutions of antibody-drug conjugates in cell culture media were prepared at 4× working concentrations, and 50 μL of each dilution was added to the 96-well plates.”
as §3
as §1, with “37°” for “37 0°”
as §4, §5

[5] = system: B-lymphocyte cancer cells (SU-DHL4); test: In vitro potency (CellTiter-Glo, 96 h), SU-DHL-4; conditions: Homo sapiens, SU-DHL-4, 96 h
Protocol: as §1, §2
as §1, with “FBS.” for “FBS. Serial dilutions of antibody-drug conjugates in cell culture media were prepared at 4× working concentrations, and 50 μL of each dilution was added to the 96-well plates.”
as §3
as §1, with “37°” for “37 0°”
as §4, §5

[6] = system: renal carcinoma cells (786-O); test: In vitro potency (CellTiter-Glo, 96 h), 786-O; conditions: Homo sapiens, 786-0, 96 h
Protocol: as §1, §2
as §1, with “FBS.” for “FBS. Serial dilutions of antibody-drug conjugates in cell culture media were prepared at 4× working concentrations, and 50 μL of each dilution was added to the 96-well plates.”
as §3
as §1, with “37°” for “37 0°”
as §4, §5

[7] = system: pancreatic cancer cells (BxPC3); test: In vitro potency (CellTiter-Glo, 96 h), BxPC3; conditions: Homo sapiens, BXPC-3, 96 h
Protocol: as §1, §2
as §1, with “FBS.” for “FBS. Serial dilutions of antibody-drug conjugates in cell culture media were prepared at 4× working concentrations, and 50 μL of each dilution was added to the 96-well plates.”
as §3
as §1, with “37°” for “37 0°”
as §4, §5

[8] = system: melanoma cells (A2058); test: In vitro potency (CellTiter-Glo, 96 h), A2058; conditions: Homo sapiens, A2058, 96 h, read-out: A2058 IC50
Protocol: as §1, §2
as §1, with “FBS.” for “FBS. Serial dilutions of antibody-drug conjugates in cell culture media were prepared at 4× working concentrations, and 50 μL of each dilution was added to the 96-well plates.”
as §3
as §1, with “37°” for “37 0°”
as §4, §5

[9] = system: anaplastic large cell lymphoma cells (DEL); test: In vitro potency (CellTiter-Glo, 96 h), DEL
Protocol: as §1, §2
as §1, with “FBS.” for “FBS. Serial dilutions of antibody-drug conjugates in cell culture media were prepared at 4× working concentrations, and 50 μL of each dilution was added to the 96-well plates.”
as §3
as §1, with “37°” for “37 0°”
as §4, §5

[10] = system: anaplastic large cell lymphoma cells (Karpas299); test: In vitro potency (CellTiter-Glo, 96 h), Karpas299; conditions: Homo sapiens, KARPAS-299, 96 h
Protocol: as §1, §2
as §1, with “FBS.” for “FBS. Serial dilutions of antibody-drug conjugates in cell culture media were prepared at 4× working concentrations, and 50 μL of each dilution was added to the 96-well plates.”
as §3
as §1, with “37°” for “37 0°”
as §4, §5

[11] = system: Hodgkin's lymphoma cells (L540cy); test: In vitro potency (CellTiter-Glo, 96 h), L540cy
Protocol: as §1, §2
as §1, with “FBS.” for “FBS. Serial dilutions of antibody-drug conjugates in cell culture media were prepared at 4× working concentrations, and 50 μL of each dilution was added to the 96-well plates.”
as §3
as §1, with “37°” for “37 0°”
as §4, §5

[12] = read-out: Ls174T IC50, camptothecin free drug, 96 h
[13] = read-out: DELBVR IC50, camptothecin free drug, 96 h
[14] = read-out: MDAMB231 IC50, camptothecin free drug, 96 h
[15] = read-out: MOLM-13 IC50, camptothecin free drug, 96 h
[16] = read-out: SU-DHL-4 IC50, camptothecin free drug, 96 h
[17] = read-out: 786-O IC50, camptothecin free drug, 96 h
[18] = read-out: BxPC3 IC50, camptothecin free drug, 96 h
[19] = read-out: DEL IC50, camptothecin free drug, 96 h
[20] = read-out: Karpas299 IC50, camptothecin free drug, 96 h
[21] = read-out: L540cy IC50, camptothecin free drug, 96 h

SMILES	IC50 [1, 12] [nM]	IC50 [2, 13] [nM]	IC50 [3, 14] [nM]	IC50 [4, 15] [nM]	IC50 [5, 16] [nM]	IC50 [6, 17] [nM]	IC50 [7, 18] [nM]	IC50 [8] [nM]	IC50 [9, 19] [nM]	IC50 [10, 20] [nM]	IC50 [11, 21] [nM]	other results
CC[C@@]1(O)C(=O)OCc2c1cc1n(c2=O)Cc2c-1nc1cc3c(cc1c2CNC1CCOCC1)OCO3 [Compound 7k]	67	14	207	34	19	57	63	14	6	46	20	
CC[C@@]1(O)C(=O)OCc2c1cc1n(c2=O)Cc2c-1nc1cc3c(cc1c2CNCCCN1CCN(C(=O)OC(C)(C)C)CC1)OCO3 [Compound 7m]												IC50 ([1]; camptothecin free drug, read-out: Ls174T IC50): 222 nM; IC50 ([2]; camptothecin free drug, read-out: DELBVR IC50): 54 nM; IC50 ([3]; camptothecin free drug, 96 h, read-out: MDAMB231 IC50): 700 nM; IC50 ([4]; camptothecin free drug, 96 h, read-out: MOLM-13 IC50): 459 nM; IC50 ([5]; camptothecin free drug, 96 h, read-out: SU-DHL-4 IC50): 74 nM; IC50 ([6]; camptothecin free drug, 96 h, read-out: 786-O IC50): 139 nM; IC50 ([7]; camptothecin free drug, 96 h, read-out: BxPC3 IC50): 173 nM; IC50 ([8]; camptothecin free drug, 96 h): 58 nM; IC50 ([9]; camptothecin free drug, read-out: DEL IC50): 55 nM; IC50 ([10]; camptothecin free drug, 96 h, read-out: Karpas299 IC50): 171 nM; IC50 ([11]; camptothecin free drug, read-out: L540cy IC50): 80 nM
CC[C@@]1(O)C(=O)OCc2c1cc1n(c2=O)Cc2c-1nc1cc3c(cc1c2CNCCCN(C)C)OCO3 [Compound 7t]	> 1000	55	1000	326	97	153	171	64	58	166	70	
CC[C@@]1(O)C(=O)OCc2c1cc1n(c2=O)Cc2c-1nc1cc3c(cc1c2CNC[C@@H](O)CO)OCO3 [Compound 7u]	86	50	707	456	66	122	108	19	26	128	60	
CC[C@@]1(O)C(=O)OCc2c1cc1n(c2=O)Cc2c-1nc1cc3c(cc1c2CNCCCN)OCO3 [Compound 7v]	146	57	1000	> 1000	99	174	225	69	58	132	87	
